PMC5658448, “From receptor binding kinetics to signal transduction; a missing link in predicting in vivo drug-action” (Scientific Reports, 2017)
Like-named read-outs stand apart in the source and are kept apart here. Blank lines part the entries; values can stand above or below the molecule they belong to.

Tests used:
NK1 receptor [1] = biological target: T1, NK1 receptor (Homo sapiens, UniProt P25103); assay: Radioligand binding affinity at the NK1 receptor ([3H][Sar9,Met(O2)11]SP, CHOhNK1 membranes)
T1 sequence (P25103 whole entry): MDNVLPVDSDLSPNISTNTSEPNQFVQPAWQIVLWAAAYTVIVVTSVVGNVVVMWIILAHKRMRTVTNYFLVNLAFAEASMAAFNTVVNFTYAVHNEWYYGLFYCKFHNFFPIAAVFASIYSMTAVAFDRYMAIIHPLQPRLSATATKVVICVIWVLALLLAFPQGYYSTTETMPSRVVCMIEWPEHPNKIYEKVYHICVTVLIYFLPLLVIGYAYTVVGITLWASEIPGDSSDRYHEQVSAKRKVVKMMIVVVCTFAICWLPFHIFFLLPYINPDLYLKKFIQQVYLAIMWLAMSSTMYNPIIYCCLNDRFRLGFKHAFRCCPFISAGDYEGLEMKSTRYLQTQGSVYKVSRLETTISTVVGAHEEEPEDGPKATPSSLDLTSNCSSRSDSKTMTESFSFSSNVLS

NK1 receptor [2] = biological target: T1, NK1 receptor; assay: Dual-point competition association assay (kinetic rate index); assay type: binding; conditions: 4 °C; Bt1 (30 min)/Bt2 (120 min); vs radioligand [3H][Sar9,Met(O2)11]SP
Procedure: Dual-point competition association assays were performed as prescribed previously, following the radioligand binding protocol of Nederpelt et al.[27].
Data from dual-point competition association assays were analyzed by dividing the specific binding at t1 (Bt1) with the specific binding at t2 (Bt2).1 KRI=Bt1/Bt2 Data from morphology and cAMP experiments were analyzed as described previously. […] Results were normalized to the maximal response induced by agonist without antagonist.

[3] = biological target: human neurokinin 1 receptor (Homo sapiens, UniProt P25103); assay: Real-time cAMP accumulation assay (GloSensor) in CHOhNK1 cells; assay type: cell-based; conditions: for type of antagonism (insurmountability): antagonist pre-incubation before SP or NKA, cAMP and morphology assays; for decrease of onset of NKA-induced cAMP production: antagonist pretreatment
Chain of human neurokinin 1 receptor (P25103 whole entry): as above
Procedure: Real-time cAMP production was measured using the life cell cAMP GloSensor^TM assay[11],[12]. The technology is based on a cAMP-biosensor, which undergoes a conformational change upon cAMP binding, followed by the turnover of Luciferin.
CHOhNK1 cells were transiently transfected with the pGloSensor™-22F cAMP (6 ng/µL) plasmid using FuGene HD (3 µL:1 µg DNA plasmid) as a transfection reagent. Accordingly, cells were harvested and reconstituted to 0.5 × 10^6 cells/ml (10,000 cells/well) in DMEM/F-12/ HEPES supplemented with 1% FCS, 2 mM glutamine and 1 mg/ml G418. The diluted plasmid solution was combined with the transfection reagent and incubated for 20 min at room temperature. Subsequently, the transfection mixture and cell solution were mixed for additional 5 min before plating in 384-well plates. The transfected cells were incubated for 24 h at 37 °C + 5% CO2 followed by treatment with Glo-substrate (3% v/v) for 2 h at room temperature. […] Real-time changes in the level of cAMP were detected using an Envision HTS microplate reader 2103 (PerkinElmer).
(§1) The onset of receptor activation was analyzed by calculating the slope with linear regression of the first 8 minutes of the cellular response.2 onset=Δcellularresponse/Δtime

NK1 receptor [4] = biological target: T1, NK1 receptor; assay: Impedance-based morphology assay (xCELLigence) in U-251 MG cells; assay type: cell-based; set-up: host or cells: U-251 MG cells; conditions: for Onset of receptor activation, morphology, NKA / Onset of receptor activation, morphology, SP / decrease of onset of NKA-induced morphological changes / decrease of onset of SP-induced impedance changes: first 8 min; for IC50: antagonist pre-incubation; for decrease of onset of NKA-induced morphological changes / decrease of onset of SP-induced impedance changes: antagonist pretreatment; for increase of EC50 value of NKA: xCELLigence, highest antagonist concentration
Procedure: Label-free morphology assays were performed using the xCELLigence RTCA system as described previously[27],[42].
as §1

NK1 receptor [5] = biological target: T1, NK1 receptor; set-up: host or cells: U-251 MG cells; conditions: cited from earlier work
NK1 receptor [6] = biological target: T1, NK1 receptor; set-up: host or cells: U-251 MG cells; conditions: room temperature; cited from earlier work
NK1 receptor [7] = biological target: T1, NK1 receptor; set-up: host or cells: U-251 MG cells; conditions: agonist alone; normalized to NKA only; cited from earlier work
[8] = NKA after 0.07 nM antagonist, first 8 min
[9] = NKA after 0.07 nM antagonist, normalized to NKA only
[10] = NKA after 0.21 nM antagonist, first 8 min
[11] = NKA after 0.21 nM antagonist, normalized to NKA only
[12] = NKA after 0.7 nM antagonist, first 8 min
[13] = NKA after 0.7 nM antagonist, normalized to NKA only
[14] = SP after 0.07 nM antagonist, first 8 min
[15] = SP after 0.07 nM antagonist, normalized to SP only
[16] = SP after 0.21 nM antagonist, first 8 min
[17] = SP after 0.21 nM antagonist, normalized to SP only
[18] = SP after 0.7 nM antagonist, first 8 min
[19] = SP after 0.7 nM antagonist, normalized to SP only

pKi (NK1 receptor [1]): 9.3 ± 0.04
KRI (kinetic rate index) (NK1 receptor [2]): 1.0 ± 0.13
Onset of receptor activation, cAMP, NKA [3, 8]: 98 ± 29^NS RLU min^−1
Emax cAMP NKA [3, 9]: 84 ± 18^NS %
Onset of receptor activation, cAMP, NKA [3, 10]: 98 ± 33^NS RLU min^−1
Emax cAMP NKA [3, 11]: 67 ± 10 %
Onset of receptor activation, cAMP, NKA [3, 12]: 71 ± 22^NS RLU min^−1
Emax cAMP NKA [3, 13]: 61 ± 15 %
Onset of receptor activation, cAMP, SP [3, 14]: 125 ± 31^NS RLU min^−1
Emax cAMP SP [3, 15]: 78 ± 4.5 %
Onset of receptor activation, cAMP, SP [3, 16]: 120 ± 27^NS RLU min^−1
Emax cAMP SP [3, 17]: 75 ± 7.7 %
Onset of receptor activation, cAMP, SP [3, 18]: 158 ± 26^NS RLU min^−1
Emax cAMP SP [3, 19]: 61 ± 10 %
EC50 ([3]; SP after 30 min pre-incubation with 0.07 nM antagonist, read-out: EC50 cAMP SP): 1.9 ± 0.5 nM
EC50 ([3]; SP after 30 min pre-incubation with 0.21 nM antagonist, read-out: EC50 cAMP SP): 2.7 ± 0.8 nM
EC50 ([3]; SP after 30 min pre-incubation with 0.7 nM antagonist, read-out: EC50 cAMP SP): 2.3 ± 0.7 nM
type of antagonism (insurmountability) [3]: partially insurmountable
IC50 ([3]; antagonist pre-incubation, then EC80 concentration of NKA, read-out: IC50 (cAMP)): 0.26 ± 0.08 nM
IC50 ([3]; antagonist pre-incubation, then EC80 concentration of SP, read-out: IC50 (cAMP assay)): 0.15 ± 0.02 nM
decrease of onset of NKA-induced cAMP production ([3]; first 8 min): did not significantly decrease
decrease of potency of NKA ([3]; cAMP assay): did not affect
decrease of Emax of SP in comparison to control ([3]; cAMP assay, highest antagonist concentration): 39%
EC50 ([3]; read-out: EC50 cAMP NKA, NKA after 30 min pre-incubation with 0.07 nM antagonist): 399 ± 19 nM
EC50 ([3]; read-out: EC50 cAMP NKA, NKA after 30 min pre-incubation with 0.21 nM antagonist): 304 ± 89 nM
EC50 ([3]; read-out: EC50 cAMP NKA, NKA after 30 min pre-incubation with 0.7 nM antagonist): 1080 ± 356 nM
Onset of receptor activation, morphology, NKA (NK1 receptor [4]; NKA after 0.07 nM antagonist): 0.06 ± 0.005^NS NCI min^−1
Emax morphology NKA (NK1 receptor [4]; [9]): 109 ± 7.6^NS %
Onset of receptor activation, morphology, NKA (NK1 receptor [4]; NKA after 0.21 nM antagonist): 0.05 ± 0.007^NS NCI min^−1
Emax morphology NKA (NK1 receptor [4]; [11]): 108 ± 6.7^NS %
Onset of receptor activation, morphology, NKA (NK1 receptor [4]; NKA after 0.7 nM antagonist): 0.04 ± 0.014^NS NCI min^−1
Emax morphology NKA (NK1 receptor [4]; [13]): 81 ± 8.9 %
Onset of receptor activation, morphology, SP (NK1 receptor [4]; SP after 0.07 nM antagonist): 0.06 ± 0.006^NS NCI min^−1
Emax morphology SP (NK1 receptor [4]; [15]): 97 ± 5.6^NS %
Onset of receptor activation, morphology, SP (NK1 receptor [4]; SP after 0.21 nM antagonist): 0.05 ± 0.006^NS NCI min^−1
Emax morphology SP (NK1 receptor [4]; [17]): 104 ± 4.2^NS %
Onset of receptor activation, morphology, SP (NK1 receptor [4]; SP after 0.7 nM antagonist): 0.03 ± 0.005 NCI min^−1
Emax morphology SP (NK1 receptor [4]; [19]): 82 ± 6.9 %
EC50 (NK1 receptor [4]; SP after 30 min pre-incubation with 0.07 nM antagonist, read-out: EC50 morphology SP): 0.053 ± 0.02 nM
EC50 (NK1 receptor [4]; SP after 30 min pre-incubation with 0.21 nM antagonist, read-out: EC50 morphology SP): 0.06 ± 0.015 nM
EC50 (NK1 receptor [4]; SP after 30 min pre-incubation with 0.7 nM antagonist, read-out: EC50 morphology SP): 3 ± 1.3 nM
IC50 (NK1 receptor [4]; then EC80 concentration of NKA, read-out: IC50 (morphology)): 0.12 ± 0.006 nM
IC50 (NK1 receptor [4]; then EC80 concentration of SP, read-out: IC50 (morphology assay)): 0.22 ± 0.1 nM
decrease of onset of NKA-induced morphological changes (NK1 receptor [4]): did not significantly decrease
decrease of onset of SP-induced impedance changes (NK1 receptor [4]): less significant
EC50 (NK1 receptor [4]; read-out: EC50 morphology NKA, NKA after 30 min pre-incubation with 0.07 nM antagonist): 3 ± 0.52 nM
EC50 (NK1 receptor [4]; read-out: EC50 morphology NKA, NKA after 30 min pre-incubation with 0.21 nM antagonist): 3.3 ± 0.45 nM
EC50 (NK1 receptor [4]; read-out: EC50 morphology NKA, NKA after 30 min pre-incubation with 0.7 nM antagonist): 8.5 ± 0.46 nM
increase of EC50 value of NKA (NK1 receptor [4]): 2 fold
SMILES: C[C@@H](O[C@H]1OCCN(Cc2n[nH]c(=O)[nH]2)[C@H]1c1ccccc1)c1cc(C(F)(F)F)cc(C(F)(F)F)c1 [DFA, desfluoro aprepitant]

SMILES: Cc1ccccc1-c1cc(N2CCN(C)CC2)ncc1N(C)C(=O)C(C)(C)c1cc(C(F)(F)F)cc(C(F)(F)F)c1 [netupitant]
type of antagonism (NK1 receptor [5]): insurmountable

Onset of receptor activation, cAMP, NKA [3, 8]: 75 ± 13^NS RLU min^−1
Onset of receptor activation, cAMP, NKA [3, 10]: 43 ± 7.7 RLU min^−1
Onset of receptor activation, cAMP, NKA [3, 12]: 9.7 ± 1.6 RLU min^−1
Onset of receptor activation, cAMP, SP [3, 14]: 94 ± 13 RLU min^−1
Emax ([3]; SP after 0.07 nM antagonist, normalized to SP only, read-out: Emax cAMP SP): 62 ± 5.7%
Onset of receptor activation, cAMP, SP [3, 16]: 63 ± 17 RLU min^−1
Emax ([3]; SP after 0.21 nM antagonist, normalized to SP only, read-out: Emax cAMP SP): 55 ± 15%
Onset of receptor activation, cAMP, SP [3, 18]: 36 ± 7 RLU min^−1
Emax ([3]; SP after 0.7 nM antagonist, normalized to SP only, read-out: Emax cAMP SP): 19 ± 5.5%
type of antagonism (insurmountability) [3]: fully insurmountable
decrease of onset of SP-induced cAMP production ([3]; antagonist pre-incubation, first 8 min): up to 6 fold
decrease of onset of NKA-induced cAMP production ([3]; first 8 min): 15 fold
decrease of potency of NKA ([3]; cAMP assay): 10 fold
Emax ([3]; cAMP assay, highest antagonist concentration, read-out: decrease of Emax of SP in comparison to control): > 80%
Emax ([3]; read-out: Emax cAMP NKA, NKA after 0.07 nM antagonist, normalized to NKA only): 71 ± 13%
Emax ([3]; read-out: Emax cAMP NKA, NKA after 0.21 nM antagonist, normalized to NKA only): 43 ± 19%
Emax ([3]; read-out: Emax cAMP NKA, NKA after 0.7 nM antagonist, normalized to NKA only): 7.8 ± 4.2%
Onset of receptor activation, morphology, NKA (NK1 receptor [4]; NKA after 0.07 nM antagonist): 0.05 ± 0.011^NS NCI min^−1
Onset of receptor activation, morphology, NKA (NK1 receptor [4]; NKA after 0.21 nM antagonist): 0.03 ± 0.007^NS NCI min^−1
Onset of receptor activation, morphology, NKA (NK1 receptor [4]; NKA after 0.7 nM antagonist): 0.006 ± 0.003 NCI min^−1
Onset of receptor activation, morphology, SP (NK1 receptor [4]; SP after 0.07 nM antagonist): 0.05 ± 0.002^NS NCI min^−1
Onset of receptor activation, morphology, SP (NK1 receptor [4]; SP after 0.21 nM antagonist): 0.04 ± 0.006^NS NCI min^−1
Onset of receptor activation, morphology, SP (NK1 receptor [4]; SP after 0.7 nM antagonist): 0.009 ± 0.003 NCI min^−1
Emax (NK1 receptor [4]; U-251, SP after 0.07 nM antagonist, normalized to SP only, read-out: Emax morphology SP): 96 ± 7.6%
Emax (NK1 receptor [4]; U-251, SP after 0.21 nM antagonist, normalized to SP only, read-out: Emax morphology SP): 79 ± 5%
Emax (NK1 receptor [4]; U-251, SP after 0.7 nM antagonist, normalized to SP only, read-out: Emax morphology SP): 53 ± 8.5%
Emax (NK1 receptor [4]; U-251, read-out: Emax morphology NKA, NKA after 0.07 nM antagonist, normalized to NKA only): 97 ± 2.3%
Emax (NK1 receptor [4]; U-251, read-out: Emax morphology NKA, NKA after 0.21 nM antagonist, normalized to NKA only): 79 ± 10%
Emax (NK1 receptor [4]; U-251, read-out: Emax morphology NKA, NKA after 0.7 nM antagonist, normalized to NKA only): 30 ± 6.2%
decrease of onset of NKA-induced morphological changes (NK1 receptor [4]): 8 fold
decrease of onset of SP-induced impedance changes (NK1 receptor [4]): 5 fold
increase of EC50 value of NKA (NK1 receptor [4]): 7 fold
SMILES: C[C@@H](O[C@H]1OCCN(Cc2n[nH]c(=O)[nH]2)[C@H]1c1ccc(F)cc1)c1cc(C(F)(F)F)cc(C(F)(F)F)c1 [Aprepitant, aprepitant]
receptor dissociation rate (NK1 receptor [6]): 0.0054 min⁻¹

SMILES: O=c1[nH]nc(CN2CCO[C@H](OCc3cc(C(F)(F)F)cc(C(F)(F)F)c3)[C@@H]2c2ccccc2)[nH]1 [L-742,694]
effect on Emax of SP after pre-incubation (NK1 receptor [5]): clear decrease

SMILES: CSCC[C@H](NC(=O)[C@H](CC(C)C)NC(=O)CNC(=O)[C@@H](NC(=O)[C@H](Cc1ccccc1)NC(=O)[C@H](CO)NC(=O)[C@H](CC(=O)O)NC(=O)[C@@H](NC(=O)[C@H](CCCCN)NC(=O)[C@@H](N)Cc1c[nH]cn1)[C@@H](C)O)C(C)C)C(N)=O [NKA, neurokinin A]
Emax morphology NKA (NK1 receptor [7]): 100 ± 0.44 %
